According to patent US8686152B2, “4,4-disubstituted piperidine derivatives useful as inhibitors of dipeptidyl peptidase-1 (DPP-1)” (Janssen Pharmaceutica NV, priority 2010, dated 2014):

What follows are molecules tested against T1, recombinant human DPP-1 (Cathepsin C) (Homo sapiens, UniProt P53634) (assay: DPP-1 Inhibition Assay (In Vitro), fluorogenic substrate GR-AMC). Conditions: 0.15 nM DPP-1, 10 uM GR-AMC, pH 7.0, room temperature; average value where tested multiple times.
T1 construct: made in house
Assay type: biochemical
Method: Test compounds were assessed for DPP-1 (Cathepsin C) inhibitory activity using a fluorogenic substrate, GR-AMC (Glycine-Arginine-amino-4-methylcoumarin, Bachem, I-1215). The amount of amino-methylcoumarin released is proportional to the DPP-1 activity, and the reaction is monitored kinetically with a Molecular Devices plate reader using black 96-well plates.
All compounds were tested under room temperature conditions. The assay buffer consisted of 50 mM HEPES, pH 7.0, 100 mM NaCl, 2 mM glutathione (GSH), and 0.002% TWEEN 20. GSH and TWEEN 20 were added to the buffer fresh daily. Just prior to use, an in-house preparation of recombinant human DPP-1 (240 μM stock, MW 49.6 kD) was diluted 600-fold in assay buffer containing fresh 2 mM dithiothreitol (DTT) to activate the enzyme, then diluted into assay buffer (without DTT) 133-fold for a DPP-1 working solution of 3 nM. Test compounds were diluted in DMSO for 20× their final assay concentrations.
Additions to a 96-well black Costar 3915 plates were as follows: 90 μL of 11 μM GR-AMC, 5 μL test compound (followed by mixing), and 5 μL 3 nM DPP-1 to start the reaction. Fluorescent reactions were monitored kinetically at 360 nm excitation, 440 nm emission on a Molecular Devices Spectramax XPS reader. The Softmax Pro software of the reader determined the initial velocity of the selected data (the first 3-5 minutes of the reaction), and the best linear regression fit of the initial kinetic data. Final assay conditions were 0.15 nM DPP-1, 10 uM GR-AMC, 50 mM HEPES, pH 7.0, 100 mM NaCl, 2 mM GSH, 0.002% TWEEN 20, 1 uM DTT, 5.0% DMSO. Initial velocity rates were plotted vs. test compound concentration by use of a four-parameter logistics equation (nonlinear regression, sigmoidal dose-response (variable slope), with fixed Hill (1.0) using GraphPad Prism® software for determination of DPP-1 IC50. Within-run assay coefficient of variation (CV) was generally <10%; between-run CV <20%.
Representative compounds of the present invention were tested according to the procedure as described above, with results as listed in Table 5, below.

T1 sequence (P53634 25-463): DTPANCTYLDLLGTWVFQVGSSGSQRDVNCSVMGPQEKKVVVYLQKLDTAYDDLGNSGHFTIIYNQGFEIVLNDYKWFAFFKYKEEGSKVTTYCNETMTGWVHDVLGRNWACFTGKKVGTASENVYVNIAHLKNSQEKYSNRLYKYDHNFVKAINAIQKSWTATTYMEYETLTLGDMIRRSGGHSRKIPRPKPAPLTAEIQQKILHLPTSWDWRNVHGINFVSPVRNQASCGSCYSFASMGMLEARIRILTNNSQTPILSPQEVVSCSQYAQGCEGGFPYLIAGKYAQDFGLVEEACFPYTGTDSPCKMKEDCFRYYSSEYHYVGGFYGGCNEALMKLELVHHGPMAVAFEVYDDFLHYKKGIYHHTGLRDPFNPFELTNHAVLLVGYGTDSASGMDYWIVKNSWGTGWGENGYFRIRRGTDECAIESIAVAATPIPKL

SMILES | IC50 [nM]
N[C@@H](Cc1cccs1)C(=O)N1CCC(Cc2ccncc2)(C(=O)NC2CCCCC2)CC1 [Compound 71] | 37
CC[C@H](N)C(=O)N1CCC(Cc2ccccc2)(C(=O)OCC2CCCCC2)CC1 [Compound 10] | ~5000
N[C@@H](Cc1c[nH]cn1)C(=O)N1CCC(Cc2ccccc2)(C(=O)OCC2CCCCC2)CC1 [Compound 12] | ~5000
N[C@@H](Cc1cccs1)C(=O)N1CCC(Cc2ccc(-c3cccc(C(=O)O)c3)cc2)(C(=O)NC2CCCCC2)CC1 [Compound 55] | 100
N#Cc1ccc(-c2ccc(CC3(C(=O)NC4CCCCC4)CCN(C(=O)[C@@H](N)Cc4cccs4)CC3)cc2)cc1 [Compound 99] | 46
COC[C@H](N)C(=O)N1CCC(Cc2ccc(-c3ccccc3)cc2)(C(=O)NC2CCCCC2)CC1 [Compound 39] | 18000
COC(=O)[C@H]1CC[C@H](CNC(=O)C2(c3ccccc3)CCN(C(=O)[C@@H](N)Cc3cccs3)CC2)CC1 [Compound 110] | 170
N[C@@H](Cc1cccs1)C(=O)N1CCC(C(=O)NC2CCOCC2)(c2ccccc2)CC1 [Compound 103] | 310
N[C@@H](Cc1cccs1)C(=O)N1CCC(Cc2ccc(C(=O)Nc3ccccc3)cc2)(C(=O)NC2CCCCC2)CC1 [Compound 60] | 33
N[C@@H](Cc1cccs1)C(=O)N1CCC(Cc2cccc(-c3ccc(C(=O)O)cc3)c2)(C(=O)NC2CCCCC2)CC1 [Compound 102] | 190
N[C@@H](Cc1cccs1)C(=O)N1CCC(C(=O)NC2=NCCS2)(c2ccccc2)CC1 [Compound 114] | 220
Cc1ccc(C2(C(=O)NCC3CCCCC3)CCN(C(=O)[C@@H](N)Cc3cccs3)CC2)cc1 [Compound 129] | 17
N#Cc1ccc(-c2ccc(CC3(C(=O)NC4CCCCC4)CCN(C(=O)[C@@H](N)Cc4cccs4)CC3)cc2)cc1 [Compound 51] | 35
N[C@@H](Cc1nccs1)C(=O)N1CCC(Cc2ccc(-c3ccccc3)cc2)(C(=O)NC2CCCCC2)CC1 [Compound 33] | 230
CC[C@H](N)C(=O)N1CCC(Cc2cccnc2)(C(=O)NC2CCCCC2)CC1 [Compound 67] | 9100
N[C@@H](Cc1c[nH]cn1)C(=O)N1CCC(C(=O)NC2CCCCC2)(c2ccccc2)CC1 [Compound 75] | 2800
N[C@@H](Cc1cccs1)C(=O)N1CCC(Cc2ccc(Cl)cc2)(C(=O)OCC2CCCCC2)CC1 [Compound 14] | 350
N[C@@H](Cc1cccs1)C(=O)N1CCC(C(=O)N[C@H]2CC[C@H](C(=O)O)CC2)(c2ccccc2)CC1 [Compound 115] | 200
N[C@@H](Cc1c[nH]cn1)C(=O)N1CCC(Cc2cccnc2)(C(=O)NC2CCCCC2)CC1 [Compound 68] | 910
N[C@@H](Cc1cccs1)C(=O)N1CCC(Cc2cccc(-c3ccc(O)nc3)c2)(C(=O)NC2CCCCC2)CC1 [Compound 98] | 45
N[C@@H](Cc1cccs1)C(=O)N1CCC(C(=O)N[C@H]2CC[C@H](O)CC2)(c2ccccc2)CC1 [Compound 85] | 110
CC[C@H](N)C(=O)N1CCC(Cc2ccc(I)cc2)(C(=O)NC2CCCCC2)CC1 [Compound 77] | 2300
N[C@@H](Cc1cc(Br)cs1)C(=O)N1CCC(Cc2ccc(I)cc2)(C(=O)NC2CCCCC2)CC1 [Compound 92] | 5600
CC[C@H](N)C(=O)N1CCC(Cc2cccnc2)(C(=O)OCC2CCCCC2)CC1 [Compound 23] | 8200
N[C@@H](Cc1cccs1)C(=O)N1CCC(Cc2cccc(-c3ccc(C(F)(F)F)cc3)c2)(C(=O)NC2CCCCC2)CC1 [Compound 100] | 120
COc1ncccc1-c1ccc(CC2(C(=O)NC3CCCCC3)CCN(C(=O)[C@@H](N)Cc3cccs3)CC2)cc1 [Compound 46] | 38

SMILES | IC50 [nM]
N[C@@H](Cc1cccs1)C(=O)N1CCC(C(=O)NCC2CCCCC2)(c2ccccc2)CC1 [Compound 91] | 23
C[C@@H](O)[C@H](N)C(=O)N1CCC(C(=O)NCC2CCCCC2)(c2ccccc2)CC1 [Compound 139] | 2600
CC[C@H](N)C(=O)N1CCC(Cc2ccncc2)(C(=O)OCC2CCCCC2)CC1 [Compound 21] | 7400
N[C@@H](Cc1cccs1)C(=O)N1CCC(Cc2ccc(C(F)(F)F)cc2)(C(=O)OCC2CCCCC2)CC1 [Compound 19] | 400
CC[C@H](N)C(=O)N1CCC(Cc2ccc(C#N)cc2)(C(=O)OCC2CCCCC2)CC1 [Compound 17] | 4400
N[C@@H](Cc1cccs1)C(=O)N1CCC(Cc2ccccc2)(C(=O)NC2CCCCC2)CC1 [Compound 86] | 40
N[C@@H](Cc1c[nH]cn1)C(=O)N1CCC(Cc2ccc(F)cc2F)(C(=O)OCC2CCCCC2)CC1 [Compound 28] | 1700
CC[C@H](N)C(=O)N1CCC(C(=O)N(C)C2CCCCC2)(c2ccccc2)CC1 [Compound 138] | 1700
N[C@@H](Cc1cccs1)C(=O)N1CCC(Cc2ccc(-c3ccc(O)nc3)cc2)(C(=O)NC2CCCCC2)CC1 [Compound 49] | 24
N[C@@H](Cc1cccs1)C(=O)N1CCC(Cc2ccc(C(=O)NC3CCCCC3)cc2)(C(=O)NC2CCCCC2)CC1 [Compound 56] | 49
Cc1ccc(C2(C(=O)NCC3CCOCC3)CCN(C(=O)[C@@H](N)Cc3cccs3)CC2)cc1 [Compound 130] | 41
N[C@@H](Cc1cccs1)C(=O)N1CCC(Cc2ccccc2)(C(=O)OCC2CCCCC2)CC1 [Compound 11] | 220
COc1ccc(-c2ccc(CC3(C(=O)NC4CCCCC4)CCN(C(=O)[C@@H](N)Cc4cccs4)CC3)cc2)cn1 [Compound 44] | 29
N[C@@H](Cc1cccs1)C(=O)N1CCC(Cc2ccc(-c3ccccc3)cc2)(C(=O)O)CC1 [Compound 2] | > 10000
CC[C@H](N)C(=O)N1CCC(Cc2ccc(-c3ccccc3)cc2)(C(=O)NCC2CCCCC2)CC1 [Compound 5] | 3000
N[C@@H](Cc1cccs1)C(=O)N1CCC(Cc2ccc(C(=O)O)cc2)(C(=O)NC2CCCCC2)CC1 [Compound 62] | 360
N[C@@H](Cc1cccs1)C(=O)N1CCC(Cc2ccc(-c3ccncc3)cc2)(C(=O)NC2CCCCC2)CC1 [Compound 42] | 29
CC[C@H](N)C(=O)N1CCC(Cc2ccncc2)(C(=O)NC2CCCCC2)CC1 [Compound 72] | 5000
CS(=O)(=O)Nc1ccc(CC2(C(=O)NC3CCCCC3)CCN(C(=O)[C@@H](N)Cc3cccs3)CC2)cc1 [Compound 88] | 31
COc1cccc(CC2(C(=O)NC3CCCCC3)CCN(C(=O)[C@@H](N)Cc3cccs3)CC2)c1 [Compound 84] | 56
N[C@@H](Cc1cccs1)C(=O)N1CCC(Cc2ccc(C(=O)N3CCOCC3)cc2)(C(=O)NC2CCCCC2)CC1 [Compound 57] | 36.3
N[C@@H](Cc1cccs1)C(=O)N1CCC(Cc2ccc(-c3cccnc3Cl)cc2)(C(=O)NC2CCCCC2)CC1 [Compound 48] | 39
N[C@@H](Cc1cccs1)C(=O)N1CCC(Cc2cccc(-c3cncnc3)c2)(C(=O)NC2CCCCC2)CC1 [Compound 97] | 39
N[C@@H](Cc1cccs1)C(=O)N1CCC(Cc2cccc(-c3ccccc3)c2)(C(=O)OCC2CCCCC2)CC1 [Compound 30] | 880
N[C@@H](Cc1cccs1)C(=O)N1CCC(Cc2ccc(-c3cncnc3)cc2)(C(=O)NC2CCCCC2)CC1 [Compound 43] | 29
N[C@@H](Cc1ccc(Cl)s1)C(=O)N1CCC(Cc2ccc(-c3ccccc3)cc2)(C(=O)NC2CCCCC2)CC1 [Compound 78] | 5600
